The values that follow are results of earlier work, collected in patent publication US20250248986A1, “ANTIFUNGAL DRUG INHALATION FORMULATIONS” (priority 2024, published 2025).

Read-outs that look alike come from different tables or passages of the source.

In the case of `CCC(C)n1ncn(-c2ccc(N3CCN(c4ccc(OCC5COC(Cn6cncn6)(c6ccc(Cl)cc6Cl)O5)cc4)CC3)cc2)c1=O` (racemic) [Itraconazole], the water solubility result is, setting by setting: (neutral conditions) “about 1 ng/ml”; (pH 1) “about 1 μg/ml”.
In the case of `CC[C@@H]([C@H](C)O)n1ncn(-c2ccc(N3CCN(c4ccc(OC[C@@H]5CO[C@@](Cn6cncn6)(c6ccc(F)cc6F)C5)cc4)CC3)cc2)c1=O` [Posaconazole], the “solubility of the free base” value (pH of about 6.4 or higher) was “less than 1 μg/ml”.
